Like-named read-outs stand apart in the source and are kept apart here. *1 amine or outer side, *2 acyl side, *3 side chain or, on linkers, in order; H or OH if unused. Where a SMILES comes first, the peptide text is derived from it. Side-chain parts run from the residue outwards. [ ]: non-standard residue; d: D form. The star is where a group is joined. αMePhe(2-F) = C[C@](N)(Cc1ccccc1F)C(=O)O; γGlu = O=C(O)[C@H](CCC(=O)[*:2])N[*:1]; C14 diacid = O=C(O)CCCCCCCCCCCCC(=O)*; αMeY = C[C@](N)(Cc1ccc(O)cc1)C(=O)O; 4Pal = N[C@@H](Cc1ccncc1)C(=O)O; αMeL = CC(C)C[C@](C)(N)C(=O)O; Orn = NCCC[C@H](N)C(=O)O; AEEA = NCCOCCOCC(=O)O; Aib = CC(C)(N)C(=O)O
Assays:
Format in all cases: cell-based
hGIPR = target: T1, hGIPR (Homo sapiens, UniProt P48546); test: Functional cAMP formation (HTRF) in HEK-293 clonal cells expressing hGIPR, 0.1% bovine casein, without or with 1.0% human serum albumin; details: for EC50: cAMP, 0.1% bovine casein (no human serum albumin), geometric mean
T1 construct: expressed in transfected cells
T1 sequence (P48546 22-466): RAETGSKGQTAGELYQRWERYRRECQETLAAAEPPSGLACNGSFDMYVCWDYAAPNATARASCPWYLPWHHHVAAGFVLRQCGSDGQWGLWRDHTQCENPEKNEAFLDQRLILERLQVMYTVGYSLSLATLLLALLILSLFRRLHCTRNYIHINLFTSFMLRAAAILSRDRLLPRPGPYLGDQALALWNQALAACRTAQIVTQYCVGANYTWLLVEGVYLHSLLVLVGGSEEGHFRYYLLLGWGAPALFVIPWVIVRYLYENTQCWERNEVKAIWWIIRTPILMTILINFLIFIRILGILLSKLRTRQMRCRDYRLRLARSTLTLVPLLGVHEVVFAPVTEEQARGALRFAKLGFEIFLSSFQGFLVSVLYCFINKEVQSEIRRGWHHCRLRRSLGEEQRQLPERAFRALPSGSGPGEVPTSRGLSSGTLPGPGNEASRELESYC
Method in brief: (§1)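 Cells were stimulated with peptide for 30 min at 37° C, then lysed in buffer carrying cAMP-d2 and anti-cAMP Eu3+-cryptate for a competitive HTRF read after at least 60 min at room temperature. The 665/620 nm ratio was converted to nM cAMP against a standard curve.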

hGCGR = target: T2, hGCGR (Homo sapiens, UniProt P47871); test: Functional cAMP formation (HTRF) in HEK-293 clonal cells expressing hGCGR, 0.1% bovine casein, without or with 1.0% human serum albumin
T2 construct: expressed in transfected cells
T2 sequence (P47871 26-477): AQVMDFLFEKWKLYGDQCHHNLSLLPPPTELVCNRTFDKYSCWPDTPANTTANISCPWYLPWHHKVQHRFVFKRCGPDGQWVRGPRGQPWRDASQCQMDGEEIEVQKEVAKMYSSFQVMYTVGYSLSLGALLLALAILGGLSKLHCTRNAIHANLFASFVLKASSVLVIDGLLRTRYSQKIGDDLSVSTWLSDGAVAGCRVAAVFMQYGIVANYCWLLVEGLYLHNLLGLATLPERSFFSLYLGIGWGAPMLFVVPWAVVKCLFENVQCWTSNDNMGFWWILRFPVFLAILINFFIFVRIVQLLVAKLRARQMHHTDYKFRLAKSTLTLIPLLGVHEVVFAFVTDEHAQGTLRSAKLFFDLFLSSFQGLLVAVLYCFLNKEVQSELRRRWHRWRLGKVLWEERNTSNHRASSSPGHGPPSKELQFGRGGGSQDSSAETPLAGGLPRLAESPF
Method in brief: as §1

hGLP-1R = hGLP-1R (Homo sapiens, UniProt P43220); test: Functional cAMP formation (HTRF) in HEK-293 clonal cells expressing hGLP-1R, 0.1% bovine casein, without or with 1.0% human serum albumin; set-up: expressed in transfected cells; details: for EC50: cAMP
Sequence of hGLP-1R (P43220 24-463): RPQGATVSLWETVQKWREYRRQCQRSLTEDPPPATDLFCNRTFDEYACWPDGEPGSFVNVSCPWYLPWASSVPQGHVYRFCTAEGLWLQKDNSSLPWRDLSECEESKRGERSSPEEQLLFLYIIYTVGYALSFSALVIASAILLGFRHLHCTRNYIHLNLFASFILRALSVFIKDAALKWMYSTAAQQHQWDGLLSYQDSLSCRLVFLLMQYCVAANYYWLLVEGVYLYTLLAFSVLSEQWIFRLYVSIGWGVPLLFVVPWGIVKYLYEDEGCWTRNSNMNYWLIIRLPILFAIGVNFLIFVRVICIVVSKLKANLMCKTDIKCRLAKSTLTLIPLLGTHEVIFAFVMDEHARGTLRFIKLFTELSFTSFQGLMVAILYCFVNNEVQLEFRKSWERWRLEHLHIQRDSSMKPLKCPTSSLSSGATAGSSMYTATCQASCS
Method in brief: as §1

[1] = 37° C., read-out: hGIPR EC50, nM (SEM, n)
[2] = cAMP, 37° C., 0.1% bovine casein (no human serum albumin), geometric mean, read-out: hGCGR EC50, nM (SEM, n)
[3] = 37° C., 0.1% bovine casein (no human serum albumin), geometric mean, read-out: hGLP-1R EC50, nM (SEM, n)

CC[C@H](C)[C@H](NC(=O)[C@H](CCCN)NC(=O)[C@H](CC(=O)O)NC(=O)[C@H](CC(C)C)NC(=O)[C@](C)(CC(C)C)NC(=O)[C@@H](NC(=O)C(C)(C)NC(=O)[C@H](Cc1ccc(O)cc1)NC(=O)[C@H](CC(=O)O)NC(=O)[C@H](CO)NC(=O)[C@@H](NC(=O)[C@](C)(Cc1ccccc1F)NC(=O)[C@@H](NC(=O)CNC(=O)[C@H](CCC(=O)O)NC(=O)C(C)(C)NC(=O)[C@@H](N)Cc1ccc(O)cc1)[C@@H](C)O)[C@@H](C)O)[C@@H](C)CC)C(=O)N[C@@H](C)C(=O)N[C@@H](CCC(N)=O)C(=O)NC(C)(C)C(=O)N[C@@H](CCC(=O)O)C(=O)N[C@@H](Cc1ccccc1)C(=O)N[C@H](C(=O)N[C@@H](CCCCNC(=O)COCCOCCNC(=O)COCCOCCNC(=O)COCCOCCNC(=O)CC[C@H](NC(=O)CCCCCCCCCOc1ccc(C(=O)O)cc1)C(=O)O)C(=O)N[C@@](C)(Cc1ccc(O)cc1)C(=O)N[C@@H](CC(C)C)C(=O)N[C@H](C(=O)N[C@@H](CCCCNC(=O)COCCOCCNC(=O)COCCOCCNC(=O)COCCOCCNC(=O)CC[C@H](NC(=O)CCCCCCCCCOc1ccc(C(=O)O)cc1)C(=O)O)C(=O)NCC(=O)NCC(=O)N1CCC[C@H]1C(=O)N[C@@H](CO)C(=O)N[C@@H](CO)C(=O)NCC(=O)N[C@@H](C)C(=O)N1CCC[C@H]1C(=O)N1CCC[C@H]1C(=O)N1CCC[C@H]1C(=O)N[C@@H](CO)C(N)=O)[C@@H](C)CC)[C@@H](C)CC [Example 346]
Emax (hGIPR; HEK293, read-out: hGIPR Emax, % ± SEM, cAMP, 37° C., 0.1% bovine casein and 1.0% human serum albumin, percent of maximal response to GIP(1-42)NH2): 83.9%
Emax (hGIPR; HEK293, read-out: hGIPR Emax, % ± SEM, cAMP, 37° C., 0.1% bovine casein, percent of maximal response to GIP(1-42)NH2, arithmetic mean): 96.6%
EC50 (hGIPR; hGIPR EC50, nM (SEM, n), 37° C.): 0.0194 nM
EC50 (hGCGR; hGCGR EC50, nM (SEM, n), cAMP, 37° C., 0.1% bovine casein (no human serum albumin), geometric mean): > 9950 nM
EC50 (hGCGR; hGCGR EC50, nM (SEM, n), cAMP, 37° C., 0.1% bovine casein and 1.0% human serum albumin, geometric mean (SEM, n)): > 9950 nM
Emax (hGLP-1R; HEK293, read-out: hGLP-1R Emax, % ± SEM, cAMP, 37° C., 0.1% bovine casein and 1.0% human serum albumin, percent of maximal response to GLP-1(7-36)NH2): 97.7%
EC50 (hGLP-1R; hGLP-1R EC50, nM (SEM, n), 37° C., 0.1% bovine casein (no human serum albumin), geometric mean): 0.329 nM

CCCCCCCCCCCC(=O)N[C@@H](CCC(=O)NCCOCCOCC(=O)NCCOCCOCC(=O)NCCCC[C@H](NC(=O)[C@H](CCCN)NC(=O)[C@H](CC(=O)O)NC(=O)[C@H](CC(C)C)NC(=O)[C@](C)(CC(C)C)NC(=O)[C@@H](NC(=O)C(C)(C)NC(=O)[C@H](Cc1ccncc1)NC(=O)[C@H](CC(=O)O)NC(=O)[C@H](CO)NC(=O)[C@@H](NC(=O)[C@](C)(Cc1ccccc1F)NC(=O)[C@@H](NC(=O)CNC(=O)[C@H](CCC(=O)O)NC(=O)C(C)(C)NC(=O)[C@@H](N)Cc1ccc(O)cc1)[C@@H](C)O)[C@@H](C)O)[C@@H](C)CC)C(=O)N[C@@H](C)C(=O)N[C@@H](CCC(N)=O)C(=O)NC(C)(C)C(=O)N[C@@H](CCCCNC(=O)COCCOCCNC(=O)COCCOCCNC(=O)CC[C@H](NC(=O)CCCCCCCCCCC)C(=O)O)C(=O)N[C@@H](Cc1ccccc1)C(=O)N[C@H](C(=O)N[C@H](CCC(=O)O)C(=O)N[C@@](C)(Cc1ccc(O)cc1)C(=O)N[C@@H](CC(C)C)C(=O)N[C@H](C(=O)N[C@@H](CCCN)C(=O)NCC(=O)NCC(=O)N1CCC[C@H]1C(=O)N[C@@H](CO)C(=O)N[C@@H](CO)C(=O)NCC(=O)N[C@@H](C)C(=O)N1CCC[C@H]1C(=O)N1CCC[C@H]1C(=O)N1CCC[C@H]1C(=O)N[C@@H](CO)C(N)=O)[C@@H](C)CC)[C@@H](C)CC)C(=O)O [Example 413]
Emax (hGIPR; HEK293, cAMP, 37° C., 0.1% bovine casein and 1.0% human serum albumin, percent of maximal response to GIP(1-42)NH2, read-out: hGIPR Emax, % ± SEM): 91.8%
EC50 (hGIPR; [1]): 0.0146 nM
EC50 (hGCGR; [2]): > 9950 nM
EC50 (hGCGR; cAMP, 37° C., 0.1% bovine casein and 1.0% human serum albumin, geometric mean (SEM, n), read-out: hGCGR EC50, nM (SEM, n)): > 9950 nM
Emax (hGLP-1R; HEK293, cAMP, 37° C., 0.1% bovine casein, percent of maximal response to GLP-1(7-36)NH2, arithmetic mean, read-out: hGLP-1R Emax, % ± SEM): 96.9%
EC50 (hGLP-1R; [3]): 0.234 nM
EC50 (hGLP-1R; 37° C., 0.1% bovine casein and 1.0% human serum albumin, geometric mean (SEM, n), read-out: hGLP-1R EC50, nM (SEM, n)): 5.47 nM

CC[C@H](C)[C@H](NC(=O)[C@H](CC(C)C)NC(=O)[C@](C)(Cc1ccc(O)cc1)NC(=O)[C@H](CCCCNC(=O)COCCOCCNC(=O)COCCOCCNC(=O)CC[C@H](NC(=O)CCCCCCCCCCCCC(=O)O)C(=O)O)NC(=O)[C@@H](NC(=O)[C@H](Cc1ccccc1)NC(=O)[C@H](CCC(=O)O)NC(=O)C(C)(C)NC(=O)[C@H](CCC(N)=O)NC(=O)[C@H](C)NC(=O)[C@H](CCCCNC(=O)COCCOCCNC(=O)COCCOCCNC(=O)CC[C@H](NC(=O)CCCCCCCCCCCCC(=O)O)C(=O)O)NC(=O)[C@H](CCCN)NC(=O)[C@H](CC(=O)O)NC(=O)[C@H](CC(C)C)NC(=O)[C@](C)(CC(C)C)NC(=O)[C@@H](NC(=O)[C@H](CO)NC(=O)[C@H](Cc1ccncc1)NC(=O)[C@H](CC(=O)O)NC(=O)[C@H](CO)NC(=O)[C@@H](NC(=O)[C@](C)(Cc1ccccc1F)NC(=O)[C@@H](NC(=O)CNC(=O)[C@H](CCC(=O)O)NC(=O)C(C)(C)NC(=O)[C@@H](N)Cc1ccc(O)cc1)[C@@H](C)O)[C@@H](C)O)[C@@H](C)CC)[C@@H](C)CC)C(=O)N[C@@H](CCC(=O)O)C(=O)NCC(=O)NCC(N)=O [Example 189] (H-Y[Aib]EGT[αMePhe(2-F)]TSD[4Pal]SI[αMeL]LD[Orn]K([AEEA-AEEA-γGlu-C14 diacid])AQ[Aib]EFIK([AEEA-AEEA-γGlu-C14 diacid])[αMeY]LIEGG-NH2; N-terminus assumed)
Emax (hGIPR; HEK293, percent of maximal response to GIP(1-42)NH2, 37° C., 0.1% bovine casein, arithmetic mean, read-out: hGIPR Emax, % ± SEM): 96.6 ± 4.38%
EC50 (hGIPR; incubated at 37° C., read-out: hGIPR EC50, nM (SEM, n)): 0.0202 nM
EC50 (hGCGR; cAMP, incubated at 37° C., 0.1% bovine casein (no human serum albumin), geometric mean, read-out: hGCGR EC50, nM (SEM, n)): > 9950 nM
Emax (hGLP-1R; HEK293, percent of maximal response to GLP-1(7-36)NH2, 37° C., 0.1% bovine casein, arithmetic mean, read-out: hGLP-1R Emax, % ± SEM): 100 ± 3.68%
EC50 (hGLP-1R; incubated at 37° C., 0.1% bovine casein (no human serum albumin), geometric mean, read-out: hGLP-1R EC50, nM (SEM, n)): 0.28 nM

CC[C@H](C)[C@H](NC(=O)[C@H](CCCN)NC(=O)[C@H](CC(=O)O)NC(=O)[C@H](CC(C)C)NC(=O)[C@](C)(CC(C)C)NC(=O)[C@@H](NC(=O)[C@](C)(CO)NC(=O)[C@H](Cc1ccc(O)cc1)NC(=O)[C@H](CC(=O)O)NC(=O)[C@H](CO)NC(=O)[C@@H](NC(=O)[C@](C)(Cc1ccccc1F)NC(=O)[C@@H](NC(=O)CNC(=O)[C@H](CCC(=O)O)NC(=O)C(C)(C)NC(=O)[C@@H](N)Cc1ccc(O)cc1)[C@@H](C)O)[C@@H](C)O)[C@@H](C)CC)C(=O)N[C@@H](C)C(=O)N[C@@H](CCC(N)=O)C(=O)NC(C)(C)C(=O)N[C@@H](CCC(=O)O)C(=O)N[C@@H](Cc1ccccc1)C(=O)N[C@H](C(=O)N[C@@H](CCCCNC(=O)COCCOCCNC(=O)COCCOCCNC(=O)CC[C@H](NC(=O)CCCCCCCCCCCCC(=O)O)C(=O)O)C(=O)N[C@@](C)(Cc1ccc(O)cc1)C(=O)N[C@@H](CC(C)C)C(=O)N[C@H](C(=O)N[C@@H](CCCCNC(=O)COCCOCCNC(=O)COCCOCCNC(=O)CC[C@H](NC(=O)CCCCCCCCCCCCC(=O)O)C(=O)O)C(=O)NCC(=O)NCC(=O)N1CCC[C@H]1C(=O)N[C@@H](CO)C(=O)N[C@@H](CO)C(=O)NCC(=O)N[C@@H](C)C(=O)N1CCC[C@H]1C(=O)N1CCC[C@H]1C(=O)N1CCC[C@H]1C(=O)N[C@@H](CO)C(N)=O)[C@@H](C)CC)[C@@H](C)CC [Example 303]
Emax (hGIPR; HEK293, 0.1% bovine casein and 1.0% human serum albumin, 37° C., percent of maximal response to GIP(1-42)NH2, read-out: hGIPR Emax, % ± SEM): 89.8%
Emax (hGIPR; HEK293, cAMP, 37° C., 0.1% bovine casein, percent of maximal response to GIP(1-42)NH2, arithmetic mean, read-out: hGIPR Emax, % ± SEM): 100%
EC50 (hGIPR; [1]): 0.0178 nM
EC50 (hGCGR; 0.1% bovine casein and 1.0% human serum albumin, 37° C., geometric mean, read-out: hGCGR EC50, nM (SEM, n)): > 9950 nM
EC50 (hGCGR; [2]): > 9950 nM
Emax (hGLP-1R; HEK293, 0.1% bovine casein and 1.0% human serum albumin, 37° C., percent of maximal response to GLP-1(7-36)NH2, read-out: hGLP-1R Emax, % ± SEM): 111%
EC50 (hGLP-1R; [3]): 0.389 nM

Source: patent US20230265151A1, “GIP/GLP1 CO-AGONIST COMPOUNDS” (priority 2020, published 2023)
